Test results published in ChEMBL document CHEMBL5303304, “EUbOPEN Chemogenomics Library - IncuCyte” (2023).

Experiments:
Type in all cases: toxicity, cell-based
U2OS = assay: Incucyte cell viability with U2OS; conditions: human, 10 µM, compound concentration 10 uM
Fibroblast = assay: Incucyte cell viability with human fibroblast; conditions: 10 µM, compound concentration 10 uM
HEK-293T = assay: Incucyte cell viability with HEK293T; conditions: human, 10 µM, compound concentration 10 uM
Further: unitless GR value; below 1 slowed growth and below 0 cell loss.

SMILES | Growth Rate (U2OS; 0 h, replicate number 2) | Growth Rate (U2OS; 6 h, replicate number 1) | Growth Rate (U2OS; 6 h, replicate number 2) | Growth Rate (U2OS; 12 h, replicate number 1) | Growth Rate (U2OS; 12 h, replicate number 2) | Growth Rate (U2OS; 18 h, replicate number 1) | Growth Rate (U2OS; 18 h, replicate number 2) | Growth Rate (U2OS; 24 h, replicate number 2) | Growth Rate (Fibroblast; 6 h, replicate number 2) | Growth Rate (Fibroblast; 12 h, replicate number 2) | Growth Rate (Fibroblast; 18 h, replicate number 2) | Growth Rate (Fibroblast; 24 h, replicate number 2) | Growth Rate (HEK-293T; 6 h, replicate number 1) | Growth Rate (HEK-293T; 6 h, replicate number 2) | Growth Rate (HEK-293T; 12 h, replicate number 2) | Growth Rate (HEK-293T; 18 h, replicate number 1) | Growth Rate (HEK-293T; 18 h, replicate number 2) | Growth Rate (HEK-293T; 24 h, replicate number 1) | Growth Rate (HEK-293T; 24 h, replicate number 2) | Growth Rate (Fibroblast; 18 h, replicate number 1) | other results
O=C(Nc1ccc(-n2nc(C(F)(F)F)cc2C(F)(F)F)cc1)c1ccncc1F | -1 | -0.16 | 0.41 | 0.54 | 0.63 | 0.8 | 0.66 | 0.77 | -1 | 0.14 | 0.72 | 0.69 | -0.04 | -0.25 | 0.24 | 0.25 | 0.42 | 0.31 | 0.46 | – | Growth Rate (U2OS; 24 h, replicate number 1): 0.69; Growth Rate (Fibroblast; 0 h, replicate number 1): -0.09; Growth Rate (Fibroblast; 6 h, replicate number 1): 0.37; Growth Rate (Fibroblast; 12 h, replicate number 1): -1; Growth Rate (Fibroblast; 24 h, replicate number 1): 0.81; Growth Rate (HEK-293T; 12 h, replicate number 1): 0.33
O=C(NCc1cccnc1OCC(F)(F)F)c1cncc(-c2ccc(Cl)cc2)c1 | -0.65 | 0.44 | – | 0.98 | – | – | – | – | -1 | 0.57 | 0.96 | – | 0.82 | – | – | 0.84 | – | 0.81 | – | -0.38 | Growth Rate (Fibroblast; 24 h, replicate number 1): 0.21
FC(F)(F)c1ccccc1-c1cc(C(F)(F)F)c2[nH]c(C3=NOC4(CCCCC4)C3)nc2c1 | -0.12 | – | – | – | 0.98 | – | – | 0.94 | -0.79 | -0.41 | -0.08 | -0.03 | 0.12 | -0.15 | -0.05 | -0.22 | -0.02 | -0.23 | 0 | – | Growth Rate (HEK-293T; 12 h, replicate number 1): -0.3
CCCC(=O)C1CCN(c2ncnc3c2CN(C(=O)c2ccc(-c4ccccc4)cc2)CC3)CC1 | – | 0.51 | – | 0.92 | – | 0.81 | – | – | -1 | 0.73 | 0.93 | 0.9 | 0.24 | 0.35 | 0.75 | – | 0.82 | – | 0.74 | 0.74 | Growth Rate (U2OS; 24 h, replicate number 1): 0.83; Growth Rate (Fibroblast; 6 h, replicate number 1): 0.84
N#Cc1cccc(-c2nc(-c3cccnc3)no2)c1 | -0.52 | – | – | 0.67 | – | – | 1 | – | 0.7 | 0.88 | 0.55 | 0.92 | 0.4 | 0.1 | 0.6 | – | 0.95 | – | – | -0.08 | Growth Rate (Fibroblast; 0 h, replicate number 1): -0.49; Growth Rate (Fibroblast; 12 h, replicate number 1): -0.97; Growth Rate (Fibroblast; 24 h, replicate number 1): 0.19
COc1ccccc1-n1nc(C2CC(C)(C)OC(C)(C)C2)cc1-c1ccc(Cl)cc1 | -0.66 | – | 0.41 | 0.85 | 0.93 | 0.94 | 0.96 | 0.95 | -1 | 0.99 | 0.87 | – | -0.05 | -0.13 | 0.41 | 0.79 | 0.54 | 0.95 | 0.64 | -0.27 | Growth Rate (U2OS; 24 h, replicate number 1): 0.94; Growth Rate (Fibroblast; 0 h, replicate number 1): -0.49; Growth Rate (HEK-293T; 12 h, replicate number 1): 0.46
Cc1ccc(S(=O)(=O)Nc2ccc(-n3nc(C(F)(F)F)cc3C(F)(F)F)cc2)cc1 | – | 0.01 | 0.69 | 0.91 | 0.8 | 0.74 | 0.83 | 0.72 | -1 | 0.78 | – | 0.83 | 0.36 | 0.63 | 0.66 | 0.47 | 0.81 | 0.62 | 0.92 | 0.74 | Growth Rate (U2OS; 24 h, replicate number 1): 0.84; Growth Rate (Fibroblast; 6 h, replicate number 1): -0.21; Growth Rate (Fibroblast; 12 h, replicate number 1): -1; Growth Rate (HEK-293T; 12 h, replicate number 1): 0.58
O=C(Nc1c(-c2cccs2)nc2ccc(Cl)cn12)c1ccc(Cl)cc1 | – | 0.3 | 0.69 | 0.64 | 0.81 | 0.95 | 0.75 | 0.56 | -1 | – | – | – | 0.88 | – | – | – | – | – | – | 0.47 | Growth Rate (U2OS; 24 h, replicate number 1): 0.97; Growth Rate (Fibroblast; 0 h, replicate number 1): 0.89; Growth Rate (Fibroblast; 12 h, replicate number 1): -1
CC1(C)CC(CN2CCC(F)(CNC(=O)c3cc(Cl)cc(Cl)c3)CC2)CCO1 (configuration not stated) | – | 0.71 | 0.8 | 0.85 | – | – | – | – | 0.34 | – | – | 0.97 | 0.4 | – | – | – | – | – | – | – | Growth Rate (U2OS; 0 h, replicate number 1): -0.43; Growth Rate (Fibroblast; 6 h, replicate number 1): -1
Cl.Cl.O=C1c2ccccc2C(Cc2ccncc2)(Cc2ccncc2)c2ccccc21 | -0.7 | – | 0.24 | – | 0.75 | – | 0.92 | 0.88 | – | – | – | 0.89 | 0.32 | 0.89 | 0.97 | 0.62 | 0.63 | 0.6 | 0.63 | 0.1 | Growth Rate (U2OS; 0 h, replicate number 1): -0.47; Growth Rate (Fibroblast; 12 h, replicate number 1): -1; Growth Rate (HEK-293T; 12 h, replicate number 1): 0.55
Cc1c(-c2cc(-c3ccccc3Cl)no2)cnn1C1CCNCC1.Cl | -1 | 0.45 | 0.01 | 0.76 | 0.66 | 0.87 | 0.68 | 0.75 | -1 | -0.55 | -0.4 | -0.36 | -0.95 | -0.85 | -0.43 | -0.72 | -0.18 | -0.68 | -0.15 | – | Growth Rate (U2OS; 24 h, replicate number 1): 0.89; Growth Rate (Fibroblast; 0 h, replicate number 1): 0.68; Growth Rate (Fibroblast; 6 h, replicate number 1): 0.11; Growth Rate (Fibroblast; 12 h, replicate number 1): -1; Growth Rate (Fibroblast; 24 h, replicate number 1): 0.83; Growth Rate (HEK-293T; 12 h, replicate number 1): -0.84
